Data published in patent US20110172098A1, “Imidazole and Triazole Compounds, Their Use and Agents Containing the Same” (priority 2008, published 2011).

What was measured:
Botrytis cinerea = test: Activity against the gray mold pathogen Botrytis cinerea in the microtiter test (M1 / C1); format: cell-based; settings: comparison with the prior art, day 7
Description: (§1) Leaves of soybean seedlings grown in pots were inoculated with a spore suspension of soybean rust (Phakopsora pachyrhizi). The pots were then placed in a chamber of high atmospheric humidity (90 to 95%) and 23 to 27° C. for 24 hours. During this time, the spores germinated and the germ tubes penetrated into the leaf tissue. The infected plants were then cultivated further in a greenhouse at temperatures between 23 and 27° C. and 60 to 80% relative atmospheric humidity. After two days, the plants were sprayed to runoff point with the active compound solution described above at the active compound concentration indicated below. After the spray coating had dried on, the test plants were cultivated in a greenhouse at temperatures between 23 and 27° C. and 60 to 80% relative atmospheric humidity for a further 10 days. The extent of the rust fungus development on the leaves was then determined visually in % of infection. […] B) Micro test The active compounds were formulated separately as a stock solution having a concentration of 10 000 ppm in DMSO.
(§2) The stock solution was pipetted into a microtiter plate (MTP) and diluted with water to the stated active compound concentration. […] Using an absorption photometer, the MTPs were measured at 405 nm on day 7 after the inoculation. The measured parameters were compared to the growth of the active compound-free control variant and the fungus- and active compound-free blank value to determine the relative growth in % of the pathogens in the individual active compounds.
(§3) The active compounds were formulated separately as a stock solution having a concentration of 10 000 ppm in DMSO. […] Using an absorption photometer, the MTPs were measured at 405 nm on day 7 after the inoculation. The measured parameters were compared to the growth of the active compound-free control variant and the fungus- and active compound-free blank value to determine the relative growth in % of the pathogens in the individual active compounds. […] […]

Septoria tritici = test: Activity against the Septoria leaf blotch pathogen Septoria tritici in the microtiter test (M2 / C2); format: cell-based; settings: comparison with the prior art, day 7
Description: as §1
as §2, with “variant (100%)” for “variant”, “compounds. […]” for “compounds.”
as §3

Row | SMILES | Growth (%) at 31 ppm of C1 (Botrytis cinerea) [%] | Growth (%) at 31 ppm of C2 (Septoria tritici) [%]
1 | Cc1ccc(C(C)CC(C(O)C(C)(C)C)n2cncn2)cc1 (stereo not drawn) | 0 | 3
2 | CC(C)(C)C(O)C(CCc1ccccc1)n1cncn1 (stereo not drawn) [reference compound] | 81 | 100
3 | Cc1ccc(CCC(C(O)C(C)(C)C)n2cncn2)cc1 (stereo not drawn) | 4 | 4
